# Article PMC3528769, “Comparative Study of the Fatty Acid Binding Process of a New FABP from Cherax quadricarinatus by Fluorescence Intensity, Lifetime and Anisotropy” (PLoS ONE, 2012)
# Values joined by “and” are separate entries in the source; they are usually repeats but may differ in a detail not shown here. Equal entries are not always repeated.
# Tests used:
# [1] = target: T1, Cq-FABP (Cherax quadricarinatus, UniProt L0I6Z9); assay: ANS fluorescence intensity titration and equilibrium displacement of ANS by fatty acids; assay type: binding
# T1 sequence (L0I6Z9 entry or part of it): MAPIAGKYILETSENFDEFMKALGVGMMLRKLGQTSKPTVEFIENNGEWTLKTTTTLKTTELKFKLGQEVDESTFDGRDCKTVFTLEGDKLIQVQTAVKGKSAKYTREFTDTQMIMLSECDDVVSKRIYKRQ
# Experimental: (§1) Fluorescence emission spectra were measured at 25°C on a Cary-Eclipse spectrofluorimeter (Varian, CA, USA) equipped with a thermostated cell holder, using solutions (70 µl) placed in microcuvettes (pathlength, 0.3 cm). The binding of non-fluorescent fatty acids (PA, OA, LA, EPA and DHA) to Cq-FABP was measured indirectly by equilibrium displacement experiments using ANS as a fluorescent probe, either by measuring the fluorescence emission of ANS or by measuring the FRET between tryptophan and ANS, resulting in the quenching of donor fluorescence. The excitation wavelength was then set at 296 or 350 nm for tryptophan or ANS, respectively; the slit widths and PMT voltage were adjusted to optimize the fluorescence signal at 25°C. For titration experiments, the fluorescence emission spectrum of tryptophan or ANS was measured and the integrated fluorescence signal of tryptophan (315–360 nm) or ANS (440–600 nm) was calculated. For samples containing high concentrations of ANS, the inner-filter effect was not negligible and was corrected. UV-visible absorption spectra were carried out on a Uvikon XL spectrophotometer.
# The equilibrium dissociation constant (Kd,FA) relative to the binding of fatty acids (FA) to Cq-FABP was determined by competition experiments using ANS displacement and linear regression of the following relationship: [drawing 1] (1) where Kd,ANS is the dissociation constant relative to the binding of ANS to the fatty acid binding site, Kd ^app ,ANS is the apparent dissociation constant of ANS obtained in the presence of a given fatty acid concentration.
# [2] = target: T1, Cq-FABP; assay: Steady-state FRET between the single Trp (W49) and ANS, Trp quenching and recovery by PA; assay type: binding
# Experimental: as §1
# [3] = target: T1, Cq-FABP; assay: Time-resolved Trp fluorescence lifetime (single-photon counting) with ANS and PA; assay type: binding; settings: for FRET efficiency: from lifetimes; for Δ%FRET,max based on lifetime values: without versus with 70 µM PA
# Experimental: The distribution of fluorescence lifetimes of tryptophan was determined by monitoring the intensity decay, I(t), using the single-photon counting technique [27]–[31]. Briefly, the excitation light pulse source was a Ti:sapphire laser (Mai Tai femtosecond laser, Spectra Physics, Mountain View, CA, USA) associated with a third harmonic generator tuned to 296 nm. The laser frequency was reduced from 80 to 8 MHz using a pulse picker (Spectra Physics). Fluorescence emission was detected by a microchannel plate photomultiplier (Hamamatsu model R3809U-05) through a monochromator (ARC SpectraPro-150) set at 340 nm (Δλ = 15 nm) with the emission polarizer set at the magic angle (54.7°). A time-correlated single-photon counting SPC-430 card (Becker–Hickl, Berlin, Germany) was used for the acquisition. Experiments were performed at 25°C using 5 µM Cq-FABP in buffer C. The average fluorescence lifetime values (τm), as reported in Table 1, were calculated from the lifetime distributions recovered by the maximum entropy method, [29], [32]. For example, Cq-FABP alone was characterized by three fluorescence lifetimes (τ1 = 0.6 ns (6%), τ2 = 2.67 ns (53%), τ3 = 3.89 (41%); τm = 3.04 ns).
# [4] = target: FABP4; parameters: method as in PMID 11827549; settings: ref [6]; read-out: Kd of ANS; cited from earlier work
# [5] = target: T1, Cq-FABP; assay: BODIPY-C16 steady-state fluorescence anisotropy titration and competition; assay type: binding; settings: for IC50: read-out: IC50 (displaces 50% of BODIPY-C16 from the fatty acid binding site)
# Experimental: The binding of 4,4-difluoro-5, 7-dimethyl-4-bora-3a, 4a-diaza-s-indacene-3-hexadecanoic acid (BODIPY-C16) to Cq-FABP was investigated by measuring the steady-state fluorescence anisotropy parameter using a Beacon instrument (PanVera, Madison, USA), in a cell thermostatically held at 25°C. The excitation and emission bandpass filters were centered at 488 nm (±6 nm) and 525 nm (±15 nm), respectively. Titration experiments were performed in buffer C (supplemented with 10% DMSO (v/v)) by maintening a constant concentration of BODIPY-C16 (200 nM) and by adding increasing concentrations of Cq-FABP. Using a vertical direction for the polarized excitation source, the steady-state fluorescence anisotropy (r) was calculated according to: [drawing 3] (3) where IV and IH correspond to the parallel (vertical) and perpendicular (horizontal) fluorescence emission intensity components, respectively. The fraction of BODIPY-C16/Cq-FABP complexes (i.e. the fraction of BODIPY-C16 bound to Cq-FABP), fb, was calculated using the following relationship: [drawing 4] (4) where r is the measured fluorescence anisotropy value, rf and rb correspond to the fluorescence anisotropy values of free BODIPY-C16 (ligand in the free state, measured in the absence of Cq-FABP) and Cq-FABP-bound BODIPY-C16 (ligand in the bound state, corresponding to the maximum anisotropy value found at the plateau), respectively. […] The Kd characterizing the BODIPY-C16/Cq-FABP complex (Kd,C16) was calculated by fitting the plot of fb versus [Cq-FABP] using the Graphpad Prism 5.0 software.
# The fluorescence anisotropy-based assay was also used in competition experiments to calculate the Kd values (Kd,FA) characterizing non-fluorescent fatty acids. The measurement of the apparent Kd value characterizing the BODIPY-C16/Cq-FABP complex (Kd ^app ,C16) under different concentration conditions for the non-fluorescent FA allows the calculation of Kd,FA according to: [drawing 5] (5) where Kd,C16 corresponds to the Kd characterizing the BODIPY-C16/Cq-FABP complex (in the absence of any non-fluorescent FA) and Kd ^app ,C16 corresponds to the apparent dissociation constant obtained for a given concentration of non-fluorescent FA. The calculation of Kd,FA was also performed in an independent manner by measuring the IC50 value characterizing each non-fluorescent FA. In this approach, the number of complexes corresponding to [C16] = 200 nM and [Cq-FABP] = 5 µM was varied by increasing the concentration of non-fluorescent FA. The IC50 value corresponds to the concentration of non-fluorescent FA that displaces 50% of C16 from the fatty acid binding site of Cq-FABP and is related to Kd,FA through the Cheng-Prusoff relationship: [drawing 6] (6)
# [6] = target: T1, Cq-FABP; assay: DAUDA fluorescence intensity enhancement; assay type: binding; settings: 5 µM Cq-FABP versus free DAUDA (Fig. S3A)
# From the text: Cis-parinaric acid and DAUDA were characterized by fluorescence emission in the 380–500 nm region (λmax,em: 410 nm) and in the 480–650 nm region (λmax,em: 540 nm), respectively (excitation wavelengths were set at 320 or 335 nm for cis-parinaric acid or DAUDA, respectively). The fluorescence intensity enhancement upon binding to Cq-FABP was monitored on a Cary-Eclipse spectrofluorimeter as indicated above. All the fluorescence emission intensities were corrected for the inner-filter effect. The emission intensity of a given fluorophore in the presence of Cq-FABP was also systematically corrected for the emission intensity of the free fluorophore. The calculation of Kd,FA was performed by measuring the IC50 value (inhibition concentration 50%) characterizing each non-fluorescent FA. As DAUDA poorly binds to Cq-FABP (see results section), only cis-parinaric acid (CPA) was used for measuring IC50 values. Titration and equilibrium displacement experiments using CPA were performed in buffer C (supplemented with 10% DMSO (v/v)). For the determination of IC50 values, the number of complexes corresponding to [CPA] = 7 µM and [Cq-FABP] = 5 µM was varied by increasing the concentration of non-fluorescent FA. […]
# [7] = target: T1, Cq-FABP; assay: cis-Parinaric acid fluorescence intensity titration and competitive displacement; assay type: binding; settings: calculated from the IC50 values (Eq. 2) using the fluorescence intensity of cis-parinaric acid; 7 µM CPA, 5 µM Cq-FABP; read-out: Kd,FA
# From the text: Cis-parinaric acid and DAUDA were characterized by fluorescence emission in the 380–500 nm region (λmax,em: 410 nm) and in the 480–650 nm region (λmax,em: 540 nm), respectively (excitation wavelengths were set at 320 or 335 nm for cis-parinaric acid or DAUDA, respectively). The fluorescence intensity enhancement upon binding to Cq-FABP was monitored on a Cary-Eclipse spectrofluorimeter as indicated above. All the fluorescence emission intensities were corrected for the inner-filter effect. The emission intensity of a given fluorophore in the presence of Cq-FABP was also systematically corrected for the emission intensity of the free fluorophore. The calculation of Kd,FA was performed by measuring the IC50 value (inhibition concentration 50%) characterizing each non-fluorescent FA. As DAUDA poorly binds to Cq-FABP (see results section), only cis-parinaric acid (CPA) was used for measuring IC50 values. Titration and equilibrium displacement experiments using CPA were performed in buffer C (supplemented with 10% DMSO (v/v)). For the determination of IC50 values, the number of complexes corresponding to [CPA] = 7 µM and [Cq-FABP] = 5 µM was varied by increasing the concentration of non-fluorescent FA. The IC50 value corresponds to the concentration of non-fluorescent FA that displaces 50% of CPA from the fatty acid binding site of Cq-FABP and is related to Kd,FA through the Cheng-Prusoff relationship: [drawing 2] (2)
# [8] = 200 nM BODIPY-C16, 5 µM Cq-FABP
smiles,measurement,setting,value
"O=S(=O)(O)c1cccc2cccc(Nc3ccccc3)c12 [ANS, 8-Anilino-1-naphthalenesulfonate]",Kd,"[1]; average of the Kd,ANS values from the intensity and FRET procedures, read-out: average Kd,ANS",27.9 µM
same,Kd,"[1]; direct titration, 5 µM Cq-FABP, 25°C, after removing free ANS and non specific contributions (Fig. 2B), read-out: Kd,ANS",30 µM and ~30 µM
same,Kd,"[1]; from displacement amplitude ΔI by PA plotted against [ANS] (Fig. 2D), 5 µM Cq-FABP, read-out: Kd,ANS",26 µM
same,Kd,"[1]; y-intercept of Kd app,ANS versus [PA] linear regression (Fig. 3B), read-out: Kd,ANS",27.8 µM
same,Kd,"[2]; from Δ%FRET versus [ANS] (Fig. 4D), binding to fatty acid binding site only, read-out: Kd,ANS",27.6 µM
same,Kd,"[2]; quenching of Trp steady-state emission by ANS, specific plus non specific binding (Fig. 4A), read-out: apparent Kd of ANS",~100 µM
same,"Δ%FRET,max (plateau)","[2]; steady-state fluorescence intensities, amplitude between [PA]0 and [PA]+∞ (Fig. 4D)",10%
same,"Average fluorescence Lifetime, τm",[3]; 5 µM Cq-FABP + 5 µM ANS,2.85 ns
same,FRET efficiency,[3]; 5 µM Cq-FABP + 5 µM ANS,6.2%
same,"Average fluorescence Lifetime, τm",[3]; 5 µM Cq-FABP + 10 µM ANS,2.75 ns
same,FRET efficiency,[3]; 5 µM Cq-FABP + 10 µM ANS,9.5%
same,"Average fluorescence Lifetime, τm",[3]; 5 µM Cq-FABP + 50 µM ANS,2.39 ns
same,FRET efficiency,[3]; 5 µM Cq-FABP + 50 µM ANS,21.4%
same,"Average fluorescence Lifetime, τm",[3]; 5 µM Cq-FABP + 200 µM ANS,2.00 ns
same,FRET efficiency,[3]; 5 µM Cq-FABP + 200 µM ANS,34.2%
same,"Δ%FRET,max based on lifetime values",[3]; [ANS] = 50 µM,12.5%
same,"Δ%FRET,max based on lifetime values",[3]; [ANS] = 200 µM,11.2%
same,Kd,[4],1.7 µM
"Cc1cc(C)n2c1C=C1C=CC(CCCCCCCCCCCCCCCC(=O)O)=[N+]1[B-]2(F)F [BODIPY-C16, 4,4-difluoro-5,7-dimethyl-4-bora-3a, 4a-diaza-s-indacene-3-hexadecanoic acid, reference compound]",Kd,"[5]; direct titration, 200 nM BODIPY-C16, increasing Cq-FABP, 25°C, 10% DMSO, read-out: Kd,C16",3.1 µM
"CN(C)c1cccc2c(S(=O)(=O)NCCCCCCCCCCC(=O)O)cccc12 [DAUDA, 11-((5-dimethylaminonaphthalene-1-sulphonyl)amino)-undecanoic acid, reference compound]",binding of DAUDA by fluorescence enhancement,[6],does not bind or only poorly binds
same,IC50,[5]; [8],263 µM
same,Kd,"[5]; from IC50 according to the Cheng-Prusoff relationship, 200 nM BODIPY-C16, 5 µM Cq-FABP, read-out: apparent Kd of Cq-FABP/DAUDA complex",~250 µM
"CC/C=C\C/C=C\C/C=C\C/C=C\C/C=C\C/C=C\CCC(=O)O [DHA, cis-4,7,10,13,16,19-docosahexaenoic acid]",Kd,"[1]; calculated from equilibrium displacement experiments using the fluorescence intensity of ANS (Eq. 1), read-out: Kd,FA",5.8 ± 0.3 µM
same,Kd,[7],4.4 ± 0.8 µM
same,IC50,[5]; [8],7.67 µM
same,Kd,"[5]; calculated from the IC50 values, using Eq. 6, 200 nM BODIPY-C16, 5 µM Cq-FABP, read-out: Kd,FA",7.4 ± 0.7 µM
same,Kd,"[5]; calculated from the Kd app,C16 values, using Eq. 5, 200 nM BODIPY-C16, read-out: Kd,FA",6.6 ± 0.5 µM
